This is an account of results in US10683293B2, “Optionally fused heterocyclyl-substituted derivatives of pyrimidine useful for the treatment of inflammatory, metabolic, oncologic and autoimmune diseases” (NUEVOLUTION A/S, priority 2014, dated 2020).

Some results are limits rather than exact numbers.

The target in assay [1] is T1, ligand binding domain of human RORγ (Homo sapiens, UniProt P51449).
T1 construct: host or cells: HEK293t
T1 sequence (P51449 269-508 limits assumed): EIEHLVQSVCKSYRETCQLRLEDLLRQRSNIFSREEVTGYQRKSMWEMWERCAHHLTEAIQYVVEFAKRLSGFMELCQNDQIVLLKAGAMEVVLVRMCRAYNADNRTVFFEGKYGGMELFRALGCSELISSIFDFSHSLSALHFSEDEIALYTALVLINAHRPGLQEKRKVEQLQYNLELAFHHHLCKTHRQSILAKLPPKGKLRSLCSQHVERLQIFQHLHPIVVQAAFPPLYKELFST
Put plainly: RORγ Reporter Assay (Gal4). Type of assay: cell-based. The note with it: for inhibition at 1 µM: HEK-293T, 1 μM test compound, HEK293t RORγ reporter cells, 24 hour, read-out: Gal4 activity range @ 1 μM (% inhibition); for Gal4 activity range @ 0.1 μM (% inhibition): RORγ Reporter Assay (Gal4), HEK293t reporter cells, compound at 0.1 μM, values are activity range bounds. In a few lines:
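HEK293t cells expressing Gal4 DBD–human RORγ LBD hybrid with Gal4-UAS firefly luciferase reporter; compounds at final 1,000 nM and 100 nM (0.1% DMSO), triplicate, medium with 10% charcoal-stripped FBS, 24 h at 37 °C. Luminescence read; percent reduction of RORγ activity calculated versus vehicle-only wells.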
On the technique in general: A reporter such as luciferase makes a cellular process visible.

Assay [2] has as its target T2, human RORγt (Ligand Binding Domain) (Homo sapiens, UniProt P51449).
T2 construct: purchased Crelux (Planegg, Germany) batch no PC5032-1
T2 sequence (P51449 269-508 limits assumed): T1 sequence (P51449 269-508 limits assumed)
Put plainly: Fluorescence Polarization (FP) Assay. The note with it: 100 nM human RORγt LBD, 25 nM TAMRA probe, values are activity range bounds. The procedure, abridged:
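In vitro fluorescence polarization binding assay on the RORγt ligand-binding pocket. A TAMRA-labelled RORγt ligand probe (MW 910 g/mol) was used, with DMSO as negative control.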
For orientation: In fluorescence polarisation assays a small probe gives low polarisation when free and higher when bound to something large.

As for `NC(=O)Cc1ccc(CNc2ncnc(N(Cc3cnc(C(F)(F)F)nc3)C3CC3)c2F)cc1` [Example A98, 2-[4-[[[6-[cyclopropyl-[[2-(trifluoromethyl)pyrimidin-5-yl]methyl]amino]-5-fluoro-pyrimidin-4-yl]amino]methyl]phenyl]acetamide], in assay [1], the inhibition (commonly the change of the read-out against control, counted positive when it falls) at 1 µM was above 80% and the “Gal4 activity range @ 0.1 μM (% inhibition)” value is recorded as above 50 % inhibition. Further, in assay [2], the half-maximal inhibitory concentration (IC50) (in general, the concentration that gives 50% inhibition) was below 500 nM.

Consider `OC1(CNc2ncnc(N(Cc3ccc(C(F)(F)F)cc3)C3CC3)c2F)CCOC1` (stereo not drawn) [Example A5, 3-[[[6-[cyclopropyl-[[4-(trifluoromethyl)phenyl]methyl]amino]-5-fluoro-pyrimidin-4-yl]amino]methyl]tetrahydrofuran-3-ol], for which, in assay [1], the inhibition at 1 µM is above 80% and the “Gal4 activity range @ 0.1 μM (% inhibition)” value is reported as above 20 % inhibition. The same compound had an IC50 in assay [2] below 1000 nM.

For `NC(=O)Cc1ccc(CNc2ncnc(N(Cc3cccc(C(F)(F)F)n3)C3CC3)c2F)cc1` [Example A176, 2-[4-[[[6-[cyclopropyl-[[6-(trifluoromethyl)-2-pyridyl]methyl]amino]-5-fluoro-pyrimidin-4-yl]amino]methyl]phenyl]acetamide], in assay [1], the inhibition at 1 µM is above 50% and the “Gal4 activity range @ 0.1 μM (% inhibition)” value is given as above 0 % inhibition. This compound registered an IC50 in assay [2] below 500 nM.

`N#Cc1ccc(CN(c2ncnc(NCc3ccc(CC(N)=O)cc3)c2F)C2CC2)cc1` [Example A64, 2-[4-[[[6-[(4-cyanophenyl)methyl-cyclopropyl-amino]-5-fluoro-pyrimidin-4-yl]amino]methyl]phenyl]acetamide]: in assay [1], the inhibition at 1 µM is above 80% and the “Gal4 activity range @ 0.1 μM (% inhibition)” value was above 50 % inhibition. Moreover, the IC50 in assay [2] was below 500 nM.

For `NC(=O)Cc1ccc(CNc2ncnc(N(Cc3c(F)cccc3Cl)C3CC3)c2F)cc1` [Example A65, 2-[4-[[[6-[(2-chloro-6-fluoro-phenyl)methyl-cyclopropyl-amino]-5-fluoro-pyrimidin-4-yl]amino]methyl]phenyl]acetamide], in assay [1], the inhibition at 1 µM is above 50% and the “Gal4 activity range @ 0.1 μM (% inhibition)” value is given as above 20 % inhibition. The IC50 in assay [2] is below 500 nM.

For the compound `NC(=O)Cc1ccc(CNc2ncnc(N(Cc3ccc(C(F)(F)F)cn3)C3CC3)c2F)cc1` [Example A85, 2-[4-[[[6-[cyclopropyl-[[5-(trifluoromethyl)-2-pyridyl]methyl]amino]-5-fluoro-pyrimidin-4-yl]amino]methyl]phenyl]acetamide], in assay [1], the inhibition at 1 µM is above 80% and the “Gal4 activity range @ 0.1 μM (% inhibition)” value is recorded as above 50 % inhibition. Moreover, in assay [2], the IC50 is below 500 nM.

On to `N#CC[C@H]1CC[C@H](CNc2ncnc(N(Cc3ccc(C(F)(F)F)cc3)C3CC3)c2F)CC1` [Example A62, 2-[4-[[[6-[cyclopropyl-[[4-(trifluoromethyl)phenyl]methyl]amino]-5-fluoro-pyrimidin-4-yl]amino]methyl]cyclohexyl] acetonitrile], for which, in assay [1], the inhibition at 1 µM is above 80% and the “Gal4 activity range @ 0.1 μM (% inhibition)” value was above 80 % inhibition. This compound also came in with an IC50 in assay [2] below 500 nM.

Take `CS(=O)(=O)Nc1ccc(CNc2ncnc(N(Cc3ccc(C(F)(F)F)cc3)C3CC3)c2F)cc1` [Example A59, N-[4-[[[6-[cyclopropyl-[[4-(trifluoromethyl)phenyl]methyl]amino]-5-fluoro-pyrimidin-4-yl]amino]methyl]phenyl]methane-sulfonamide]: in assay [1], the inhibition at 1 µM is above 80% and the “Gal4 activity range @ 0.1 μM (% inhibition)” value is reported as above 80 % inhibition. The 50% inhibitory concentration (IC50) in assay [2] is below 500 nM.

On to `CS(=O)(=O)c1ccc(CNc2ncnc(N(Cc3ccc(C(F)(F)F)cn3)C3CC3)c2F)cn1` [Example A108, N4-cyclopropyl-5-fluoro-N6-[(6-methylsulfonyl-3-pyridyl)methyl]-N4-[[5-(trifluoromethyl)-2-pyridyl]methyl]pyrimidine-4,6-diamine], for which, in assay [1], the inhibition at 1 µM is above 80% and the “Gal4 activity range @ 0.1 μM (% inhibition)” value is above 20 % inhibition. Moreover, in assay [2], the IC50 is below 2000 nM.

With `CS(=O)(=O)c1ccc(CNc2ncnc(N(Cc3ccc(C(F)(F)F)cc3)C3CC3)c2F)cn1` [Example A89, N6-cyclopropyl-5-fluoro-N4-[(6-methylsulfonyl-3-pyridyl)methyl]-N6-[[4-(trifluoromethyl)phenyl]methyl] pyrimidine-4,6-diamine], in assay [1], the inhibition at 1 µM is above 80% and the “Gal4 activity range @ 0.1 μM (% inhibition)” value was above 80 % inhibition. In assay [2], this compound displayed a half-inhibitory concentration (IC50) below 500 nM.

`CC(C)c1ccc(CN(c2ncnc(NCc3ccc(CC(N)=O)cc3)c2F)C2CC2)cc1` [Example A53, 2-[4-[[[6-[cyclopropyl-[(4-isopropylphenyl)methyl]amino]-5-fluoro-pyrimidin-4-yl]amino]methyl]phenyl]acetamide]: in assay [1], the inhibition at 1 µM is above 80% and the “Gal4 activity range @ 0.1 μM (% inhibition)” value is above 80 % inhibition. The compound also had a 50% inhibitory concentration (IC50) in assay [2] below 500 nM.

For the compound `CS(=O)(=O)N1[C@@H]2CC[C@H]1CC(CNc1ncnc(N(Cc3ccc(C(F)(F)F)cc3)C3CC3)c1F)C2` (stereo partly drawn) [Example A171, N6-cyclopropyl-5-fluoro-N4-[[(1S,5R)-8-methylsulfonyl-8-azabicyclo[3.2.1]octan-3-yl]methyl]-N6-[[4-(trifluoromethyl)phenyl]methyl] pyrimidine-4,6-diamine], in assay [1], the inhibition at 1 µM was above 80% and the “Gal4 activity range @ 0.1 μM (% inhibition)” value is reported as above 80 % inhibition. The concentration for half-maximal inhibition (IC50) in assay [2] is below 500 nM.

Turning to `OCC1(Cn2ccc3c(N(Cc4ccc(C(F)(F)F)cc4)C4CC4)ncnc32)COC1` [Example A56, [3-[[4-[cyclopropyl-[[4-(trifluoromethyl)phenyl]methyl]amino]pyrrolo[2,3-d]pyrimidin-7-yl]methyl]oxetan-3-yl]methanol], in assay [1], the inhibition at 1 µM was above 80% and the “Gal4 activity range @ 0.1 μM (% inhibition)” value is given as above 80 % inhibition. Moreover, the concentration for half-maximal inhibition (IC50) in assay [2] is below 500 nM.

Take `C[S+]([O-])c1ccc(CNc2ncnc(N(Cc3ccc(C(F)(F)F)cc3)C3CC3)c2F)cc1` (stereo not drawn) [Example A76, N4-cyclopropyl-5-fluoro-N6-[(4-methylsulfinylphenyl)methyl]-N4-[[4-(trifluoromethyl)phenyl]methyl] pyrimidine-4,6-diamine]: in assay [1], the inhibition at 1 µM is above 80% and the “Gal4 activity range @ 0.1 μM (% inhibition)” value was above 80 % inhibition. Further, in assay [2], the half-inhibitory concentration (IC50) is below 500 nM.

Turning to `Cc1ccc(CNc2ncnc(N(Cc3ccc(C(F)(F)F)cc3)C3CC3)c2F)cn1` [Example A1, N4-cyclopropyl-5-fluoro-N6-[(6-methyl-3-pyridyl)methyl]-N4-[[4-(trifluoromethyl)phenyl]methyl] pyrimidine-4,6-diamine], in assay [1], the inhibition at 1 µM is above 80% and the “Gal4 activity range @ 0.1 μM (% inhibition)” value is above 20 % inhibition. In assay [2], this compound returned an IC50 below 1000 nM.

Take `NC(=O)Cc1ccc(CNc2ncnc(N(Cc3ccc(C(F)(F)F)cc3O)C3CC3)c2F)cc1` [Example A168, 2-[4-[[[6-[cyclopropyl-[[2-hydroxy-4-(trifluoromethyl)phenyl]methyl]amino]-5-fluoro-pyrimidin-4-yl]amino]methyl]phenyl]acetamide]: in assay [1], the inhibition at 1 µM is above 80% and the “Gal4 activity range @ 0.1 μM (% inhibition)” value is listed as above 50 % inhibition. This compound showed a half-maximal inhibitory concentration (IC50) in assay [2] below 500 nM.

On to `CS(=O)(=O)c1ccc(CNc2ncnc(N(Cc3ccc(C(F)(F)F)nc3)C3CC3)c2F)cn1` [Example A110, N4-cyclopropyl-5-fluoro-N6-[(6-methylsulfonyl-3-pyridyl)methyl]-N4-[[6-(trifluoromethyl)-3-pyridyl]methyl]pyrimidine-4,6-diamine], for which, in assay [1], the inhibition at 1 µM was above 50% and the “Gal4 activity range @ 0.1 μM (% inhibition)” value is above 0 % inhibition. Also, the 50% inhibitory concentration (IC50) in assay [2] is below 2000 nM.

In the case of `Cc1nc(C)c(C(C)N(C)c2ncnc(NCc3ccc(CC(N)=O)cc3)c2F)s1` (stereo not drawn) [Example A125, 2-[4-[[[6-[1-(2,4-dimethylthiazol-5-yl)ethyl-methyl-amino]-5-fluoro-pyrimidin-4-yl]amino]methyl]phenyl]acetamide], in assay [1], the inhibition at 1 µM was above 50% and the “Gal4 activity range @ 0.1 μM (% inhibition)” value is on record as above 0 % inhibition. The concentration for half-maximal inhibition (IC50) in assay [2] is below 500 nM.

For the compound `COC(=O)CC(c1ccc(C(F)(F)F)cc1)N(c1ncnc(NCc2ccc(CC(N)=O)cc2)c1F)C1CC1` (stereo not drawn) [Example A16, methyl 3-[[6-[[4-(2-amino-2-oxo-ethyl)phenyl]methylamino]-5-fluoro-pyrimidin-4-yl]-cyclopropyl-amino]-3-[4-(trifluoromethyl)phenyl]propanoate], in assay [1], the inhibition at 1 µM is above 20% and the “Gal4 activity range @ 0.1 μM (% inhibition)” value is given as above 0 % inhibition. This compound registered an IC50 in assay [2] below 500 nM.

Turning to `NC(=O)Cc1ccc(CNc2ncnc(N(Cc3ccnc(C(F)(F)F)c3)C3CC3)c2F)cc1` [Example A170, 2-[4-[[[6-[cyclopropyl-[[2-(trifluoromethyl)-4-pyridyl]methyl]amino]-5-fluoro-pyrimidin-4-yl]amino]methyl]phenyl]acetamide], in assay [1], the inhibition at 1 µM was above 50% and the “Gal4 activity range @ 0.1 μM (% inhibition)” value is recorded as above 20 % inhibition. Moreover, the IC50 in assay [2] is below 500 nM.
